This assay has as its target T1, 14-3-3γ (Homo sapiens, UniProt P61981).
T1 construct: made in house; host or cells: E. coli NiCo21 (DE3)
T1 sequence (P61981 1-247): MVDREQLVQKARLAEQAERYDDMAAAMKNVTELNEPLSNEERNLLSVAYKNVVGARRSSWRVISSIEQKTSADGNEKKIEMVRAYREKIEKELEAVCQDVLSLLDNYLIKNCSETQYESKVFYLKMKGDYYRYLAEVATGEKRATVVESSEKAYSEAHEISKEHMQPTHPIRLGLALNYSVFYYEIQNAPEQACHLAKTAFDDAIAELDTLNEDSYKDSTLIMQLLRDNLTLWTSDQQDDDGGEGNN
Briefly: Fluorescence anisotropy (FA) binary binding study: 14-3-3 titrated to fluorescein-labelled peptide. As to conditions: for ΔΔG of point mutation (FA): relative to 1, mean ± SD, SD; for Affinity Kd / Kd: Table S4, point-mutated peptides; for ΔΔG of point mutation (FA) / Affinity Kd / Kd: FA; for Affinity Kd: 10 nM FITC-labelled peptide; for Kd: 14-3-3 titrated to 10 nM FITC-labelled peptide, HEPES pH 7.4, room temperature, 4PL fit, read-out: Affinity Kd; for Fold change to 1 / ΔG / ΔΔG to 1: Table S4. The procedure, abridged: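 N-terminal His6-tagged full-length human 14-3-3γ expressed in E. coli, Ni-NTA purified and dialyzed into 25 mM HEPES pH 8.0, 100 mM NaCl, 10 mM MgCl2, 500 μM TCEP. Tag-cleaved 14-3-3σ truncated after T231 used for crystallography. Labelled peptides made by Fmoc solid-phase synthesis.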

[1] abbreviates: FA Kd of peptide divided by Kd of 1, mean of n = 3.
The mark [2] stands for this setting: calculated from FA Kd, mean of n = 3.
Setting [3] is: ΔG minus ΔG of 1, FA, replicate 1.
[4] abbreviates: ΔG minus ΔG of 1, FA, replicate 2.
Where [5] appears, read: ΔG minus ΔG of 1, FA, replicate 3.
Where [6] appears, read: ΔG of peptide minus ΔG of 1, FA, mean of n = 3.

Where a SMILES comes first, the peptide text is derived from it. [ ]: non-standard residue; d: D form. ξ: configuration not given here. Phe(4-NO2) = N[C@@H](Cc1ccc([N+](=O)[O-])cc1)C(=O)O; ξAla(4-thiazolyl) = NC(Cc1cscn1)C(=O)O; pS = N[C@@H](COP(=O)(O)O)C(=O)O; β3hS = N[C@@H](CO)CC(=O)O; Nva = CCC[C@H](N)C(=O)O; βAla = NCCC(=O)O

Consider `CCC[C@H](NC(=O)[C@H](N)CCCCN)C(=O)N[C@@H](Cc1ccc([N+](=O)[O-])cc1)C(=O)N[C@@H](C)C(=O)N[C@@H](COP(=O)(O)O)C(=O)N[C@@H](Cc1ccc([N+](=O)[O-])cc1)C(=O)N[C@@H](CO)CC(=O)NCCC(=O)N[C@@H](Cc1ccc([N+](=O)[O-])cc1)C(=O)N[C@@H](CCCCN)C(N)=O` [3a] (H-[dK][Nva][Phe(4-NO2)]A[pS][Phe(4-NO2)][β3hS][βAla][Phe(4-NO2)]K-NH2; N-terminus and C-terminus assumed), for which the “ΔΔG of point mutation (FA)” value was 0.0 ± 0.4 kcal/mol. Where the note is “replicate 1”, the “Affinity Kd” value was 100 nM. For the same molecule, the “Affinity Kd” value (replicate 2) came out at 42 nM. The “Affinity Kd” value (replicate 3) amounted to 72 nM. In addition, the Kd (mean of n = 3) worked out at 71 nM. In addition, the “Fold change to 1” value (FA Kd / Kd of 1, replicate 1) is 1.9. Under “FA Kd / Kd of 1, replicate 2”, the “Fold change to 1” value is 0.6. Under “FA Kd / Kd of 1, replicate 3”, the “Fold change to 1” value is listed as 1.0. Moreover, the “Fold change to 1” value under setting [1] came out at 1.2. Further, the ΔG under setting [2] is recorded as -9.8 kcal/mol. Under “from FA Kd, replicate 1”, this molecule yielded a ΔG of -9.5 kcal/mol. The same molecule gave a ΔG (from FA Kd, replicate 2) of -10.1 kcal/mol. For the setting “from FA Kd, replicate 3”, the ΔG was -9.7 kcal/mol. Besides, under setting [3], the “ΔΔG to 1” value was determined as 0.4 kcal/mol. Further, the “ΔΔG to 1” value under setting [4] was -0.3 kcal/mol. Also, under setting [5], the “ΔΔG to 1” value was found to be 0.0 kcal/mol. Also, the “ΔΔG to 1” value under setting [6] is 0.0 kcal/mol.

As to `CCC[C@H](NC(=O)[C@H](N)CCCCN)C(=O)N[C@@H](Cc1ccc([N+](=O)[O-])cc1)C(=O)NC(Cc1cscn1)C(=O)N[C@@H](COP(=O)(O)O)C(=O)N[C@@H](Cc1ccc(O)cc1)C(=O)N[C@@H](CO)CC(=O)NCCC(=O)N[C@@H](Cc1ccc([N+](=O)[O-])cc1)C(=O)N[C@@H](CCCCN)C(N)=O` (stereo partly drawn) [4a] (H-[dK][Nva][Phe(4-NO2)][ξAla(4-thiazolyl)][pS]Y[β3hS][βAla][Phe(4-NO2)]K-NH2; N-terminus and C-terminus assumed), the “Affinity Kd” value is, setting by setting: (replicate 1) 47 nM; (replicate 2) 41 nM; (replicate 3) 63 nM. Moreover, the Kd (mean of n = 3) came out at 50 nM. Further, the “Fold change to 1” value reads like this: (FA Kd / Kd of 1, replicate 1) 0.9; (FA Kd / Kd of 1, replicate 2) 0.6; (FA Kd / Kd of 1, replicate 3) 0.9; under setting [1], 0.8. Moreover, the ΔG is on record as -10.0 kcal/mol under setting [2]; -10.0 kcal/mol (from FA Kd, replicate 1); -10.1 kcal/mol (from FA Kd, replicate 2); -9.8 kcal/mol (from FA Kd, replicate 3). For the same molecule, the “ΔΔG to 1” value is, setting by setting: under setting [3], -0.1 kcal/mol; under setting [4], -0.3 kcal/mol; under setting [5], -0.1 kcal/mol; under setting [6], -0.2 kcal/mol.

For `CCC[C@H](NC(=O)[C@H](N)CCCCN)C(=O)N[C@@H](Cc1ccc([N+](=O)[O-])cc1)C(=O)NC(Cc1cscn1)C(=O)N[C@@H](COP(=O)(O)O)C(=O)N[C@@H](Cc1ccccc1)C(=O)N[C@@H](CO)CC(=O)NCCC(=O)N[C@@H](Cc1ccc([N+](=O)[O-])cc1)C(=O)N[C@@H](CCCCN)C(N)=O` (stereo partly drawn) [4b] (H-[dK][Nva][Phe(4-NO2)][ξAla(4-thiazolyl)][pS]F[β3hS][βAla][Phe(4-NO2)]K-NH2; N-terminus and C-terminus assumed), the “ΔΔG of point mutation (FA)” value is -0.1 ± 0.3 kcal/mol. For the setting “replicate 1”, the “Affinity Kd” value was 46 nM. In addition, the “Affinity Kd” value (replicate 2) was determined as 33 nM. For the same molecule, where the note is “replicate 3”, the “Affinity Kd” value is 87 nM. For the same molecule, the Kd (mean of n = 3) turned out to be 55 nM. The “Fold change to 1” value (FA Kd / Kd of 1, replicate 1) was found to be 0.9. Under “FA Kd / Kd of 1, replicate 2”, the “Fold change to 1” value is listed as 0.5. Besides, the “Fold change to 1” value (FA Kd / Kd of 1, replicate 3) is on record as 1.2. Also, the “Fold change to 1” value under setting [1] is listed as 0.8. The ΔG under setting [2] was -9.9 kcal/mol. Besides, the ΔG (from FA Kd, replicate 1) is -10.0 kcal/mol. Further, the ΔG (from FA Kd, replicate 2) is -10.2 kcal/mol. For the same molecule, the ΔG (from FA Kd, replicate 3) is given as -9.6 kcal/mol. Besides, the “ΔΔG to 1” value under setting [3] is given as -0.1 kcal/mol. The “ΔΔG to 1” value under setting [4] is -0.5 kcal/mol. For the same molecule, the “ΔΔG to 1” value under setting [5] is recorded as 0.1 kcal/mol. Under setting [6], the “ΔΔG to 1” value is on record as -0.1 kcal/mol.

As to `CCC[C@H](NC(=O)[C@H](N)CCCCN)C(=O)N[C@@H](Cc1ccc([N+](=O)[O-])cc1)C(=O)NC(Cc1cscn1)C(=O)N[C@@H](COP(=O)(O)O)C(=O)N[C@@H](C)C(=O)N[C@@H](CO)CC(=O)NCCC(=O)N[C@@H](Cc1ccc([N+](=O)[O-])cc1)C(=O)N[C@@H](CCCCN)C(N)=O` (stereo partly drawn) [4c] (H-[dK][Nva][Phe(4-NO2)][ξAla(4-thiazolyl)][pS]A[β3hS][βAla][Phe(4-NO2)]K-NH2; N-terminus and C-terminus assumed), the “ΔΔG of point mutation (FA)” value stood at 1.8 ± 0.1 kcal/mol. Besides, where the note is “replicate 1”, the “Affinity Kd” value stood at 1200 nM. In addition, under “replicate 2”, the “Affinity Kd” value was found to be 1200 nM. The “Affinity Kd” value (replicate 3) is 1600 nM. Also, the Kd (mean of n = 3) was found to be 1300 nM. Besides, the “Fold change to 1” value (FA Kd / Kd of 1, replicate 1) is reported as 24.0. Moreover, the “Fold change to 1” value (FA Kd / Kd of 1, replicate 2) was 17.0. The “Fold change to 1” value (FA Kd / Kd of 1, replicate 3) was determined as 21.3. For the same molecule, the “Fold change to 1” value under setting [1] stood at 20.8. Also, the ΔG under setting [2] is -8.0 kcal/mol. Where the note is “from FA Kd, replicate 1”, this molecule registered a ΔG of -8.1 kcal/mol. This molecule came in with a ΔG (from FA Kd, replicate 2) of -8.1 kcal/mol. In addition, where the note is “from FA Kd, replicate 3”, the ΔG was -7.9 kcal/mol. Also, the “ΔΔG to 1” value under setting [3] stood at 1.9 kcal/mol. Also, under setting [4], the “ΔΔG to 1” value turned out to be 1.7 kcal/mol. Under setting [5], the “ΔΔG to 1” value came to 1.8 kcal/mol. Also, the “ΔΔG to 1” value under setting [6] turned out to be 1.8 kcal/mol.

As to `CCC[C@H](NC(=O)[C@H](N)CCCCN)C(=O)N[C@@H](Cc1ccc([N+](=O)[O-])cc1)C(=O)NC(Cc1cscn1)C(=O)N[C@@H](COP(=O)(O)O)C(=O)N[C@@H](Cc1ccc([N+](=O)[O-])cc1)C(=O)N[C@@H](CO)CC(=O)NCCC(=O)N[C@@H](Cc1ccc(O)cc1)C(=O)N[C@@H](CCCCN)C(N)=O` (stereo partly drawn) [5a] (H-[dK][Nva][Phe(4-NO2)][ξAla(4-thiazolyl)][pS][Phe(4-NO2)][β3hS][βAla]YK-NH2; N-terminus and C-terminus assumed), the “Affinity Kd” value (replicate 1) came to 1700 nM, the “Affinity Kd” value (replicate 2) stood at 1200 nM and the “Affinity Kd” value (replicate 3) is 1700 nM. In addition, the Kd (mean of n = 3) stood at 1500 nM. The “Fold change to 1” value is 33.2 (FA Kd / Kd of 1, replicate 1); 17.1 (FA Kd / Kd of 1, replicate 2); 22.5 (FA Kd / Kd of 1, replicate 3); 24.2 under setting [1]. Moreover, the ΔG under setting [2] is -7.9 kcal/mol; the ΔG (from FA Kd, replicate 1) is on record as -7.9 kcal/mol; the ΔG (from FA Kd, replicate 2) was -8.1 kcal/mol; the ΔG (from FA Kd, replicate 3) is reported as -7.9 kcal/mol. The “ΔΔG to 1” value is listed as 2.1 kcal/mol under setting [3], 1.7 kcal/mol under setting [4], 1.8 kcal/mol under setting [5] and 1.9 kcal/mol under setting [6]. For the same molecule, for the setting “replacement of nitro by hydroxy group at +4, compared with 5b, FA and ITC”, the “14-3-3 binding affinity, result in words” value is on record as “did not restore the binding affinity”.

For `CCC[C@H](NC(=O)[C@H](N)CCCCN)C(=O)N[C@@H](Cc1ccc([N+](=O)[O-])cc1)C(=O)NC(Cc1cscn1)C(=O)N[C@@H](COP(=O)(O)O)C(=O)N[C@@H](Cc1ccc([N+](=O)[O-])cc1)C(=O)N[C@@H](CO)CC(=O)NCCC(=O)N[C@@H](Cc1ccccc1)C(=O)N[C@@H](CCCCN)C(N)=O` (stereo partly drawn) [5b] (H-[dK][Nva][Phe(4-NO2)][ξAla(4-thiazolyl)][pS][Phe(4-NO2)][β3hS][βAla]FK-NH2; N-terminus and C-terminus assumed), the “Affinity Kd” value runs as follows: (replicate 1) 1300 nM; (replicate 2) 1200 nM; (replicate 3) 1800 nM. The Kd (mean of n = 3) was found to be 1400 nM. Further, the “Fold change to 1” value is, setting by setting: (FA Kd / Kd of 1, replicate 1) 24.3; (FA Kd / Kd of 1, replicate 2) 16.9; (FA Kd / Kd of 1, replicate 3) 24.9; under setting [1], 22.0. In addition, the ΔG is reported as -8.0 kcal/mol under setting [2]; -8.0 kcal/mol (from FA Kd, replicate 1); -8.1 kcal/mol (from FA Kd, replicate 2); -7.8 kcal/mol (from FA Kd, replicate 3). Also, the “ΔΔG to 1” value by setting is: under setting [3], 1.9 kcal/mol; under setting [4], 1.7 kcal/mol; under setting [5], 1.9 kcal/mol; under setting [6], 1.8 kcal/mol.

Source of the values: paper PMC9667936, “Functional mapping of the 14-3-3 hub protein as a guide to design 14-3-3 molecular glues” (Chemical Science, 2022).
